Results reported in patent publication US11149018B2, “Substituted N-arylethyl-2-aminoquinoline-4-carboxamides and use thereof” (Bayer Aktiengesellschaft, priority 2017, dated 2021).

Target: FP receptor (Homo sapiens (Human), UniProt P43088)
Assay: In vitro test of inhibition of human FP receptor activity (PGF2α-induced calcium flux in FP-expressing CHEM1 cells)
Assay type: cell-based
Conditions: PGF2α 2 nM, some mean values of multiple determinations
Protocol: B-1. In Vitro Test of Inhibition of Human FP Receptor Activity
For the characterization of test substances in respect of FP antagonism, PGF2α-induced calcium flux in FP-expressing CHEM1 cells (Millipore, HTS093C) was used.
10 μl of the prediluted substance solution are added to the Fluo-8-laden cells and incubated at 37° C., 5% CO2 for 10 minutes. The FP receptor is activated by adding 40 μl of 2 nM (final concentration) PGF2α in calcium-free Tyrode, 2 mM CaCl2, 0.002% SmartBlock, and the calcium flux is determined by measuring the fluorescence at ex. 470 nm/[…].
Table 1 below lists the IC50 values from this assay for individual working examples of the invention (some as mean values from multiple independent individual determinations): […]

FP receptor, sequence (P43088 whole entry): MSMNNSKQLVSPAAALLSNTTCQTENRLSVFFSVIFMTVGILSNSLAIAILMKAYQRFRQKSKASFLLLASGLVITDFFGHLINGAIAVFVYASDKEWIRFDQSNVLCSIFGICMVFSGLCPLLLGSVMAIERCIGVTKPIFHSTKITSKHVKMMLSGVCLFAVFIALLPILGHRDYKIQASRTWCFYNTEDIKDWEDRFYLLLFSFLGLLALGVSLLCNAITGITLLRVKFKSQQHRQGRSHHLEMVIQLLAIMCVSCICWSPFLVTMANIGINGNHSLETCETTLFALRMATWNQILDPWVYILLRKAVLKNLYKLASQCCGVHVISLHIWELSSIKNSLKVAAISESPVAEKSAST

IC50 [nM] | Structure (SMILES)
16 | Cc1c(N2C[C@@H](F)[C@@H](F)C2)nc2ccc(Br)cc2c1C(=O)NCC(CCC(=O)O)c1ccccc1Cl (mixture of isomers) [Example 70, (+/−)-5-[({6-Bromo-2-[cis-3,4-difluoropyrrolidin-1-yl]-3-methylquinolin-4-yl}carbonyl)amino]-4-(2-chlorophenyl)pentanoic acid]
80 | Cc1c(N2CC(F)(F)C(F)(F)C2)nc2ccc(Br)cc2c1C(=O)NCC(CCC(=O)O)c1ccccc1Cl (racemic) [Example 72, (+/−)-5-({[6-Bromo-3-methyl-2-(3,3,4,4-tetrafluoropyrrolidin-1-yl)quinolin-4-yl]carbonyl}amino)-4-(2-chlorophenyl)pentanoic acid]
170 | Cc1c(N2CC3CCC(C3)C2)nc2ccc(Br)cc2c1C(=O)NCC(CCC(=O)O)c1ccccc1Cl (racemic) [Example 74, (+/−)-5-[({2-[3-Azabicyclo[3.2.1]oct-3-yl]-6-bromo-3-methylquinolin-4-yl}carbonyl)amino]-4-(2-chlorophenyl)pentanoic acid]
66 | Cc1c(N2CC=CCO2)nc2ccc(Br)cc2c1C(=O)NCC(CCC(=O)O)c1ccccc1Cl (racemic) [Example 77, (+/−)-5-({[6-Bromo-2-(3,6-dihydro-2H-1,2-oxazin-2-yl)-3-methylquinolin-4-yl]carbonyl}amino)-4-(2-chlorophenyl)pentanoic acid]
28 | Cc1c(N2CCc3ccccc3C2)nc2ccc(Br)cc2c1C(=O)NCC(CCC(=O)O)c1ccccc1Cl (racemic) [Example 84, (+/−)-5-({[6-Bromo-2-(3,4-dihydroisoquinolin-2(1H)-yl)-3-methylquinolin-4-yl]carbonyl}amino)-4-(2-chlorophenyl)pentanoic acid]
330 | Cc1c(N2CC3CCCCC3C2)nc2ccc(Br)cc2c1C(=O)NCC(CCC(=O)O)c1ccccc1Cl (racemic) [Example 86, (+/−)-5-({[6-Bromo-3-methyl-2-(octahydro-2H-isoindol-2-yl)quinolin-4-yl]carbonyl}amino)-4-(2-chlorophenyl)pentanoic acid]
550 | Cc1c(N2CCS(=O)(=O)CC2)nc2ccc(Br)cc2c1C(=O)NCC(CCC(=O)O)c1ccccc1Cl (racemic) [Example 87, (+/−)-5-({[6-Bromo-2-(1,1-dioxidothiomorpholin-4-yl)-3-methylquinolin-4-yl]carbonyl}amino)-4-(2-chlorophenyl)pentanoic acid]
880 | Cc1c(N2CNC(=O)C2)nc2ccc(Br)cc2c1C(=O)NCC(CCC(=O)O)c1ccccc1Cl (racemic) [Example 88, (+/−)-5-({[6-Bromo-3-methyl-2-(4-oxoimidazolidin-1-yl)quinolin-4-yl]carbonyl}amino)-4-(2-chlorophenyl)pentanoic acid]
59 | Cc1c(N2CCCOCC2)nc2ccc(Br)cc2c1C(=O)NCC(CCC(=O)O)c1ccccc1Cl (racemic) [Example 90, (+/−)-5-({[6-Bromo-3-methyl-2-(1,4-oxazepan-4-yl)quinolin-4-yl]carbonyl}amino)-4-(2-chlorophenyl)pentanoic acid]
390 | COC1CN(c2nc3ccc(Br)cc3c(C(=O)NCC(CCC(=O)O)c3ccccc3Cl)c2C)C1 (racemic) [Example 92, (+/−)-5-({[6-Bromo-2-(3-methoxyazetidin-1-yl)-3-methylquinolin-4-yl]carbonyl}amino)-4-(2-chlorophenyl)pentanoic acid]
15 | Cc1c(NCCc2ccccc2)nc2ccc(Br)cc2c1C(=O)NCC(CCC(=O)O)c1ccccc1Cl (racemic) [Example 94, (+/−)-5-[({6-Bromo-3-methyl-2-[(2-phenylethyl)amino]quinolin-4-yl}carbonyl)amino]-4-(2-chlorophenyl)pentanoic acid]
65 | Cc1c(N(C)CCc2ccccc2)nc2ccc(Br)cc2c1C(=O)NCC(CCC(=O)O)c1ccccc1Cl (racemic) [Example 95, (+/−)-5-[({6-Bromo-3-methyl-2-[methyl(2-phenylethyl)amino]quinolin-4-yl}carbonyl)amino]-4-(2-chlorophenyl)pentanoic acid]
950 | Cc1c(NCc2ccccc2)nc2ccc(Br)cc2c1C(=O)NCC(CCC(=O)O)c1ccccc1Cl (racemic) [Example 96, (+/−)-5-({[2-(Benzylamino)-6-bromo-3-methylquinolin-4-yl]carbonyl}amino)-4-(2-chlorophenyl)pentanoic acid]
530 | Cc1c(NC2CCC2)nc2ccc(Br)cc2c1C(=O)NCC(CCC(=O)O)c1ccccc1Cl (racemic) [Example 97, (+/−)-5-({[6-Bromo-2-(cyclobutylamino)-3-methylquinolin-4-yl]carbonyl}amino)-4-(2-chlorophenyl)pentanoic acid]
530 | Cc1c(NCCC(F)(F)F)nc2ccc(Br)cc2c1C(=O)NCC(CCC(=O)O)c1ccccc1Cl (racemic) [Example 98, (+/−)-5-[({6-Bromo-3-methyl-2-[(3,3,3-trifluoropropyl)amino]quinolin-4-yl}carbonyl)amino]-4-(2-chlorophenyl)pentanoic acid]
500 | Cc1c(NCC2CCCCC2)nc2ccc(Br)cc2c1C(=O)NCC(CCC(=O)O)c1ccccc1Cl (racemic) [Example 99, (+/−)-5-[({6-Bromo-2-[(cyclohexylmethyl)amino]-3-methylquinolin-4-yl}carbonyl)amino]-4-(2-chlorophenyl)pentanoic acid]
340 | Cc1c(NCC2CC2)nc2ccc(Br)cc2c1C(=O)NCC(CCC(=O)O)c1ccccc1Cl (racemic) [Example 100, (+/−)-5-[({6-Bromo-2-[(cyclopropylmethyl)amino]-3-methylquinolin-4-yl}carbonyl)amino]-4-(2-chlorophenyl)pentanoic acid]
450 | CCCCNc1nc2ccc(Br)cc2c(C(=O)NCC(CCC(=O)O)c2ccccc2Cl)c1C (racemic) [Example 101, (+/−)-5-({[6-Bromo-2-(butylamino)-3-methylquinolin-4-yl]carbonyl}amino)-4-(2-chlorophenyl)pentanoic acid]
250 | Cc1c(NCC(C)C)nc2ccc(Br)cc2c1C(=O)NCC(CCC(=O)O)c1ccccc1Cl (racemic) [Example 102, (+/−)-5-({[6-Bromo-2-(isobutylamino)-3-methylquinolin-4-yl]carbonyl}amino)-4-(2-chlorophenyl)pentanoic acid]
340 | Cc1c(NC2CCCC2)nc2ccc(Br)cc2c1C(=O)NCC(CCC(=O)O)c1ccccc1Cl (racemic) [Example 103, (+/−)-5-({[6-Bromo-2-(cyclopentylamino)-3-methylquinolin-4-yl]carbonyl}amino)-4-(2-chlorophenyl)pentanoic acid]
410 | COCCNc1nc2ccc(Br)cc2c(C(=O)NCC(CCC(=O)O)c2ccccc2Cl)c1C (racemic) [Example 104, (+/−)-5-[({6-Bromo-2-[(2-methoxyethyl)amino]-3-methylquinolin-4-yl}carbonyl)amino]-4-(2-chlorophenyl)pentanoic acid]
860 | CCNc1nc2ccc(Br)cc2c(C(=O)NCC(CCC(=O)O)c2ccccc2Cl)c1C (racemic) [Example 109, (+/−)-5-({[6-Bromo-2-(ethylamino)-3-methylquinolin-4-yl]carbonyl}amino)-4-(2-chlorophenyl)pentanoic acid]
24 | Cc1c(N2CCCC3(CC3)C2)nc2ccc(Br)cc2c1C(=O)NCC(CCC(=O)O)c1ccccc1Cl (racemic) [Example 110, (+/−)-5-({[2-(5-Azaspiro[2.5]oct-5-yl)-6-bromo-3-methylquinolin-4-yl]carbonyl}amino)-4-(2-chlorophenyl)pentanoic acid]
6.4 | Cc1c(N2CCCCC2)nc2ccc(Br)cc2c1C(=O)NCC(CCC(=O)O)c1ccccc1C(F)(F)F (racemic) [Example 111, (+/−)-5-({[6-Bromo-3-methyl-2-(piperidin-1-yl)quinolin-4-yl]carbonyl}amino)-4-[2-(trifluoromethyl)phenyl]pentanoic acid]
14 | Cc1c(N2CCCC2)nc2ccc(Br)cc2c1C(=O)NCC(CCC(=O)O)c1ccccc1C(F)(F)F (racemic) [Example 114, (+/−)-5-({[6-Bromo-3-methyl-2-(pyrrolidin-1-yl)quinolin-4-yl]carbonyl}amino)-4-[2-(trifluoromethyl)phenyl]pentanoic acid]
16 | Cc1c(N2CCCC(F)(F)C2)nc2ccc(Br)cc2c1C(=O)NCC(CCC(=O)O)c1ccccc1C(F)(F)F (racemic) [Example 117, (+/−)-5-({[6-Bromo-2-(3,3-difluoropiperidin-1-yl)-3-methylquinolin-4-yl]carbonyl}amino)-4-[2-(trifluoromethyl)phenyl]pentanoic acid]
11 | Cc1c(N2CCCCCC2)nc2ccc(Br)cc2c1C(=O)NCC(CCC(=O)O)c1ccccc1C(F)(F)F (racemic) [Example 120, (+/−)-5-({[2-(Azepan-1-yl)-6-bromo-3-methylquinolin-4-yl]carbonyl}amino)-4-[2-(trifluoromethyl)phenyl]pentanoic acid]

Structure (SMILES) | IC50 [nM]
Cc1c(N2CC3CC(C3)C2)nc2ccc(Br)cc2c1C(=O)NCC(CCC(=O)O)c1ccccc1Cl (racemic) [Example 73, (+/−)-5-[({2-[3-Azabicyclo[3.1.1]hept-3-yl]-6-bromo-3-methylquinolin-4-yl}carbonyl)amino]-4-(2-chlorophenyl)pentanoic acid] | 48
Cc1c(N2CC(F)(F)C2)nc2ccc(Br)cc2c1C(=O)NCC(CCC(=O)O)c1ccccc1Cl (racemic) [Example 75, (+/−)-5-({[6-Bromo-2-(3,3-difluoroazetidin-1-yl)-3-methylquinolin-4-yl]carbonyl}amino)-4-(2-chlorophenyl)pentanoic acid] | 120
